# Data from PubChem BioAssay (NCI).
#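 Grown in 96-well plates, cells were treated for 48 hours with each compound at five concentrations. Insufficient inhibition: endpoint recorded as highest concentration tested. TGI: concentration producing complete growth inhibition.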
# Assays:
# Assay in all cases: growth of human tumour cells (NCI), 48 h
# OVCAR-4 ovarian = tested on: OVCAR-4 ovarian
# DU-145 prostate = tested on: DU-145 prostate
# OVCAR-8 ovarian = tested on: OVCAR-8 ovarian
# SW-620 colon = tested on: SW-620 colon
# SN12C renal = tested on: SN12C renal
# NCI/ADR-RES ovarian = tested on: NCI/ADR-RES ovarian
# HL-60(TB) leukemia = tested on: HL-60(TB) leukemia
# HS 578T breast = tested on: HS 578T breast
# 786-0 renal = tested on: 786-0 renal
# KM20L2 colon = tested on: KM20L2 colon
# MOLT-4 leukemia = tested on: MOLT-4 leukemia
# SF-539 CNS = tested on: SF-539 CNS
# UACC-62 melanoma = tested on: UACC-62 melanoma
# HOP-18 NSCLC = tested on: HOP-18 NSCLC
# PC-3 prostate = tested on: PC-3 prostate
# NCI-H23 lung = tested on: NCI-H23 lung
# EKVX NSCLC = tested on: EKVX NSCLC
# SNB-78 CNS = tested on: SNB-78 CNS
# SR leukemia = tested on: SR leukemia
# HOP-62 NSCLC = tested on: HOP-62 NSCLC
# MCF7 breast = tested on: MCF7 breast
# CAKI-1 renal = tested on: CAKI-1 renal
# SNB-75 CNS = tested on: SNB-75 CNS
# TK-10 renal = tested on: TK-10 renal
# RXF 393 renal = tested on: RXF 393 renal
# ACHN renal = tested on: ACHN renal
# MALME-3M melanoma = tested on: MALME-3M melanoma
# SK-MEL-28 melanoma = tested on: SK-MEL-28 melanoma
# MDA-MB-435 = tested on: MDA-MB-435
# OVCAR-5 ovarian = tested on: OVCAR-5 ovarian
# OVCAR-3 ovarian = tested on: OVCAR-3 ovarian
# K-562 leukemia = tested on: K-562 leukemia
# NCI-H460 lung = tested on: NCI-H460 lung
# HCT-15 colon = tested on: HCT-15 colon
# M14 melanoma = tested on: M14 melanoma
# SK-MEL-5 melanoma = tested on: SK-MEL-5 melanoma
# HCT-116 colon = tested on: HCT-116 colon
# A549 NSCLC = tested on: A549 NSCLC
# UACC-257 melanoma = tested on: UACC-257 melanoma
# UO-31 renal = tested on: UO-31 renal
# RPMI-8226 leukemia = tested on: RPMI-8226 leukemia
# T-47D breast = tested on: T-47D breast
# SF-268 CNS = tested on: SF-268 CNS
# SNB-19 CNS = tested on: SNB-19 CNS
# HOP-92 NSCLC = tested on: HOP-92 NSCLC
# SK-OV-3 ovarian = tested on: SK-OV-3 ovarian
# BT-549 breast = tested on: BT-549 breast
# NCI-H226 lung = tested on: NCI-H226 lung
# MDA-MB-231 breast = tested on: MDA-MB-231 breast
# SF-295 CNS = tested on: SF-295 CNS
# A498 renal = tested on: A498 renal
# DLD-1 colon = tested on: DLD-1 colon
# DMS 114 small cell lung = tested on: DMS 114 small cell lung
# KM12 colon = tested on: KM12 colon
# NCI-H522 lung = tested on: NCI-H522 lung
# M19-MEL melanoma = tested on: M19-MEL melanoma
# U251 CNS = tested on: U251 CNS
# HT29 colon = tested on: HT29 colon
# IGROV1 ovarian = tested on: IGROV1 ovarian
# CCRF-CEM leukemia = tested on: CCRF-CEM leukemia
# COLO 205 colon = tested on: COLO 205 colon
# LXFL 529 NSCLC = tested on: LXFL 529 NSCLC
# SK-MEL-2 melanoma = tested on: SK-MEL-2 melanoma
# HCC-2998 colon = tested on: HCC-2998 colon
compound,measurement,setting,value
CCCCCCCCCCCCCCCCCCNC(=O)OCC(CNS(=O)(=O)CCC[n+]1cccc2ccccc21)COC (stereo unspecified),TGI,OVCAR-4 ovarian,7.01 µM
same,TGI,DU-145 prostate,34.3 µM
same,TGI,OVCAR-8 ovarian,> 26.1 µM
same,TGI,SW-620 colon,11.8 µM
same,TGI,SN12C renal,20.8 µM
same,TGI,NCI/ADR-RES ovarian,34.2 µM
same,TGI,HL-60(TB) leukemia,> 100 µM
same,TGI,HS 578T breast,5.35 µM
same,TGI,786-0 renal,> 43.5 µM
same,TGI,KM20L2 colon,2.15 µM
same,TGI,MOLT-4 leukemia,> 100 µM
same,TGI,SF-539 CNS,5.63 µM
same,TGI,UACC-62 melanoma,8.21 µM
same,TGI,HOP-18 NSCLC,15.4 µM
same,TGI,PC-3 prostate,4.84 µM
same,TGI,NCI-H23 lung,5.6 µM
same,TGI,EKVX NSCLC,65.7 µM
same,TGI,SNB-78 CNS,7.92 µM
same,TGI,SR leukemia,> 100 µM
same,TGI,HOP-62 NSCLC,38.9 µM
same,TGI,MCF7 breast,3.68 µM
same,TGI,CAKI-1 renal,51.3 µM
same,TGI,SNB-75 CNS,6.84 µM
same,TGI,TK-10 renal,31.1 µM
same,TGI,RXF 393 renal,55.8 µM
same,TGI,ACHN renal,29.9 µM
same,TGI,MALME-3M melanoma,18.7 µM
same,TGI,SK-MEL-28 melanoma,> 35.1 µM
same,TGI,MDA-MB-435,4.94 µM
same,TGI,OVCAR-5 ovarian,6.09 µM
same,TGI,OVCAR-3 ovarian,48.5 µM
same,TGI,K-562 leukemia,> 100 µM
same,TGI,NCI-H460 lung,> 100 µM
same,TGI,HCT-15 colon,59.2 µM
same,TGI,M14 melanoma,25.9 µM
same,TGI,SK-MEL-5 melanoma,7.03 µM
same,TGI,HCT-116 colon,5.78 µM
same,TGI,A549 NSCLC,25.9 µM
same,TGI,UACC-257 melanoma,8.24 µM
same,TGI,UO-31 renal,> 75.1 µM
same,TGI,RPMI-8226 leukemia,> 100 µM
same,TGI,T-47D breast,> 100 µM
same,TGI,SF-268 CNS,> 20.4 µM
same,TGI,SNB-19 CNS,6.13 µM
same,TGI,HOP-92 NSCLC,4.01 µM
same,TGI,SK-OV-3 ovarian,> 24.5 µM
same,TGI,BT-549 breast,5.41 µM
same,TGI,NCI-H226 lung,3.84 µM
same,TGI,MDA-MB-231 breast,4.05 µM
same,TGI,SF-295 CNS,30.3 µM
same,TGI,A498 renal,64.9 µM
same,TGI,DLD-1 colon,27.5 µM
CCN(CC)CCCC(C)Nc1cc(-c2ccccc2)nc2cc(OC)ccc12 (stereo unspecified),TGI,OVCAR-4 ovarian,18.7 µM
same,TGI,DMS 114 small cell lung,21.8 µM
same,TGI,HL-60(TB) leukemia,7.04 µM
same,TGI,KM20L2 colon,7.89 µM
same,TGI,MOLT-4 leukemia,8.24 µM
same,TGI,SF-539 CNS,17.7 µM
same,TGI,UACC-62 melanoma,36.6 µM
same,TGI,KM12 colon,22.3 µM
same,TGI,NCI-H522 lung,19.9 µM
same,TGI,M19-MEL melanoma,27.5 µM
same,TGI,NCI-H23 lung,32.1 µM
same,TGI,SNB-78 CNS,18 µM
same,TGI,SR leukemia,12.1 µM
same,TGI,HOP-62 NSCLC,19.4 µM
same,TGI,U251 CNS,15.8 µM
same,TGI,HT29 colon,4.83 µM
same,TGI,SNB-75 CNS,25.9 µM
same,TGI,ACHN renal,29.8 µM
same,TGI,MALME-3M melanoma,22.4 µM
same,TGI,SK-MEL-28 melanoma,20.5 µM
same,TGI,IGROV1 ovarian,41.9 µM
same,TGI,CCRF-CEM leukemia,11.4 µM
same,TGI,OVCAR-5 ovarian,7.97 µM
same,TGI,OVCAR-3 ovarian,34.5 µM
same,TGI,K-562 leukemia,5.7 µM
same,TGI,NCI-H460 lung,14.7 µM
same,TGI,M14 melanoma,3.52 µM
same,TGI,UACC-257 melanoma,35.6 µM
same,TGI,UO-31 renal,9.22 µM
same,TGI,RPMI-8226 leukemia,5.77 µM
same,TGI,COLO 205 colon,13.4 µM
same,TGI,SF-268 CNS,32.9 µM
same,TGI,LXFL 529 NSCLC,19.9 µM
same,TGI,HOP-92 NSCLC,11.1 µM
same,TGI,SK-OV-3 ovarian,37.5 µM
same,TGI,SF-295 CNS,21.1 µM
same,TGI,SK-MEL-2 melanoma,26.3 µM
same,TGI,A498 renal,14 µM
same,TGI,HCC-2998 colon,2.41 µM
